Positions count from the first letter of the chain named.
Assays:
hVAChT W325H = molecular target: T1, hVAChT W325H (Homo sapiens, UniProt Q16572, W325H); experiment: [3H]vesamicol saturation binding; conditions: pH 7.4
T1 sequence (Q16572 1-532 W325H): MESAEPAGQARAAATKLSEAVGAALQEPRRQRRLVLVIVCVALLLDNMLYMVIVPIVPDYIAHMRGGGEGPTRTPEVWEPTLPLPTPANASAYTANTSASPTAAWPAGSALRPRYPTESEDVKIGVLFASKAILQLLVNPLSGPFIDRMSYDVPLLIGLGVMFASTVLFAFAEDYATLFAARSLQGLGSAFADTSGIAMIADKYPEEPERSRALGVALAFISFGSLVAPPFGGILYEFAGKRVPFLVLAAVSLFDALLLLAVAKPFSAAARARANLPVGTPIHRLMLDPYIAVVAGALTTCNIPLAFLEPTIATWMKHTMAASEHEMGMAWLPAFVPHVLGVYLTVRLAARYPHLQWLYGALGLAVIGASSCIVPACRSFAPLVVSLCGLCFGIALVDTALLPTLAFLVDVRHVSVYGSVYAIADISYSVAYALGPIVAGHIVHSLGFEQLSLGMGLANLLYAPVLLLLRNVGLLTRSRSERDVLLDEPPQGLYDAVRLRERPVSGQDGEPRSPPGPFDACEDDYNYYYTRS

hVAChT wild-type = molecular target: T2, hVAChT wild-type (Homo sapiens, UniProt Q16572); experiment: [3H]vesamicol saturation binding; conditions: WT hVAChT; pH 7.4; per mg postnuclear supernatant
T2 sequence (Q16572 1-532): T1 sequence (Q16572 1-532 W325H) with H325W

hVAChT W331L = molecular target: T3, hVAChT W331L (Homo sapiens, UniProt Q16572, W331L); experiment: [3H]vesamicol saturation binding; conditions: pH 7.4
T3 sequence (Q16572 1-532 W331L): T1 sequence (Q16572 1-532 W325H) with H325W, W331L

hVAChT F392A = molecular target: T4, hVAChT F392A (Homo sapiens, UniProt Q16572, F392A); experiment: ACh equilibrium binding by competition against [3H]vesamicol
T4 sequence (Q16572 1-532 F392A): T1 sequence (Q16572 1-532 W325H) with H325W, F392A

hVAChT M320A = molecular target: T5, hVAChT M320A (Homo sapiens, UniProt Q16572, M320A); experiment: as above
T5 sequence (Q16572 1-532 M320A): T1 sequence (Q16572 1-532 W325H) with M320A, H325W

SMILES	Bmax, maximal specific [3H]vesamicol binding (VAChT expression level) (hVAChT W325H)	Bmax, maximal specific [3H]vesamicol binding (VAChT expression level) (hVAChT wild-type)	Bmax, maximal specific [3H]vesamicol binding (VAChT expression level) (hVAChT W331L)	Kd (hVAChT F392A)	FHA, fraction of the ACh sites that have high affinity (hVAChT F392A; F392A hVAChT, pH 7.4)	Kd (hVAChT M320A)	FHA, fraction of the ACh sites that have high affinity (hVAChT M320A; M320A hVAChT, pH 7.4)
O[C@@H]1CCCC[C@H]1N1CCC(c2ccccc2)CC1 (racemic) [vesamicol, ( )-trans-2-(4-phenylpiperidino)cyclohexanol]	22 ± 1 pmol/mg	50 ± 1 pmol/mg	14 ± 1 pmol/mg	–	–	–	–
CC(=O)OCC[N+](C)(C)C [ACh, acetylcholine]	–	–	–	7.9 ± 1.3 mM	0.91 ± 0.06	9.2 ± 0.8 mM	0.73 ± 0.11

Source: publication PMC2962730 (Journal of neurochemistry, 2010)
